These results are taken from a melting point compilation (Tetko et al.).

Usually melting point stands for the temperature of the solid-liquid transition. Regarding `CN(CC(=O)O)c1ccc(C(F)(F)F)cc1C=O`, the melting point fell in the range of 106 to 108 °C.
To `Cc1c(F)cc(C(=O)O)cc1S(=O)(=O)Cl` belongs 179 to 181 °C.
To `Nc1cc(F)ccc1Sc1ncn[nH]1` belongs 180 to 182 °C.
Under `Cc1ccc(Oc2ncccc2C#N)c(Br)c1` stands 116 to 118 °C.
For `CS(=O)(=O)Nc1cccc(I)c1`, the melting point fell in the range of 119 to 121 °C.
To `Nc1nc(-c2ccc(O)cc2)n[nH]1` belongs 268 to 270 °C; to `Nc1cc([N+](=O)[O-])ccc1Nc1cccc(C(F)(F)F)c1`, 165 to 167 °C; to `Cc1ccnc(Oc2cc(N)ccc2C)c1`, 76 to 78 °C.
As for `O=C(O)c1ccc(Cn2cc(Br)cn2)o1`, the melting point lay in the range of 128 to 130 °C.
Under `Cc1nn(CCO)c2ncc(Br)cc12` stands 110 to 112 °C.
With `COc1ccc(OC)c(C(F)(F)C(=O)O)c1`, the melting point fell in the range of 81 to 83 °C.
Under `O=C(CCl)NC(=O)NCc1ccco1` stands 128 to 130 °C; under `Nc1ccc(S(=O)(=O)Nc2ccc(Cl)c(C(F)(F)F)c2)cc1`, 144 to 146 °C; under `O=C(CCCl)N(c1ccccc1)C1C=CS(=O)(=O)C1` (stereo unspecified), 122 to 124 °C.
To `CCN(CC)S(=O)(=O)c1ccc(C)c(C(=O)O)c1` belongs 140 to 142 °C; to `Nc1ccccc1-c1nc(-c2ccccc2)n[nH]1`, 177 to 179 °C; to `Cc1cc(C)n(CCCCl)n1`, 202 to 204 °C.
Under `Cc1nc(Cl)ccc1C(=O)O` stands 149 to 151 °C.
`NCc1ccc(-n2cnc3ccccc32)cc1`: the melting point is 72 to 74 °C.
To `O=C(O)c1cc([N+](=O)[O-])cc(Cl)c1F` belongs 180 to 182 °C.
The molecule `O=C(O)CCCNC(=O)NC1CCCCC1` displayed a melting point of 153 to 155 °C.
Molecule `Nc1cccc(I)c1C(=O)O` showed a melting point of 130 to 132 °C.
To `N#Cc1cccc(-n2ccnc2)n1` belongs 97 to 99 °C; to `CS(=O)(=O)NCCCN`, 61 to 63 °C.
Under `NC(=S)C1CCOC1` (stereo unspecified) stands 102 to 104 °C; under `O=Cc1ccc(-c2ccccc2[N+](=O)[O-])s1`, 112 to 114 °C.
In turn, `CS(=O)(=O)Cc1ccc(Cl)cc1S(=O)(=O)Cl` came in with a melting point of 103 to 105 °C.
To `CCn1nc(C)c(C(=O)O)c1Cl` belongs 129 to 131 °C; to `CCOC(=O)c1c(NC(=O)CCl)sc(C)c1CC`, 97 to 99 °C.
Under `O=C(O)C1Cc2nc[nH]c2C(c2ccccc2)N1` (stereo unspecified) stands 209 to 211 °C; under `NS(=O)(=O)Cc1ccon1`, 106 to 108 °C.
To `NC(Cn1cccn1)=NO` belongs 80 to 82 °C; to `O=C(O)c1cc(S(=O)(=O)N2CCCCC2)ccc1Cl`, 214 to 216 °C; to `Nc1ccnn1Cc1ccc(Cl)c(F)c1`, 68 to 70 °C.
With `CC1=NN(Cc2ccc(Cl)cc2Cl)C(=O)C1`, the melting point lay in the range of 128 to 130 °C.
As to `Cc1ccc(C(=O)C(=O)O)cc1`, the melting point lay in the range of 176 to 178 °C.
Under `Cc1ncc(NC(=O)OC(C)(C)C)s1` stands 147 to 149 °C; under `CC(C)NC(=O)C(=O)NN`, 158 to 160 °C; under `O=C(Cc1ccc(Br)cc1)Nc1cccc(C(=O)O)c1`, 291 to 293 °C.
Under `CCOC(=O)c1c(CC(C)C)csc1N` stands 58 to 60 °C; under `CC(=O)c1cncnc1`, 63 to 65 °C.
To `Cc1ccccc1C=NO` belongs 38 to 40 °C; to `NC(=S)CCN1CCCCC1`, 104 to 106 °C.
In the case of `Fc1ccc2c(c1)NCCC2`, the melting point is 46 to 48 °C.
On to `NS(=O)(=O)N1CCCC1`, for which the melting point lay in the range of 96 to 98 °C.
To `c1ccc(CN2CCNc3ccccc32)cc1` belongs 44 to 46 °C; to `COc1ccc(C(=O)/C=C2\NC(=O)CS2)cc1`, 210 to 212 °C; to `N#Cc1cccc(N2C(=O)CCC2=O)c1`, 134 to 136 °C.
To `CCCc1cnc(N)s1` belongs 43 to 45 °C; to `O=C(Nc1ccccn1)C1CCNCC1`, 113 to 115 °C.
In turn, `O=C(O)Cn1c(=O)[nH]c2ccccc21` displayed a melting point of 247 to 249 °C.
To `COc1cccc(C=O)c1OC(F)F` belongs 30 to 32 °C.
To `CC(Cl)C(=O)Nc1cc([N+](=O)[O-])ccc1Cl` (stereo unspecified) belongs 120 to 122 °C; to `O=C(c1ccc(Br)o1)N1CCNCC1`, 118 to 120 °C; to `O=c1[nH]c(-c2cnccn2)no1`, 232 to 234 °C.
On to `O=C(O)c1cccc(S(=O)(=O)N2CCN(c3ccc(F)cc3)CC2)c1`, for which the melting point lay within 129 to 131 °C.
Under `Cc1c(C(=O)O)cnn1C1CCCCC1` stands 143 to 145 °C; under `CN(C)CCN1C(=O)C(=O)c2cc(Br)ccc21`, 102 to 104 °C; under `CC(=Cc1cccc(Cl)c1)C(=O)O`, 99 to 101 °C.
Under `CCS(=O)(=O)c1ccc(Cl)c(C(=O)O)c1` stands 144 to 146 °C; under `CCCc1cc(=O)c2cc(Oc3ccccc3)ccc2[nH]1`, 207 to 209 °C; under `O=C(O)c1cn(-c2ccccc2)nc1-c1ccc(-c2ccccc2)cc1`, 255 to 257 °C.
Under `COC(=O)c1ccc(F)c(S(=O)(=O)Cl)c1` stands 48 to 50 °C; under `O=C(NCCO)c1cncc(Br)c1`, 128 to 130 °C.
`Cc1oc(-c2ccc(Cl)cc2)nc1C(=O)O` returned a melting point of 235 to 237 °C.
To `O=C(Nc1ccc(Cl)cn1)C1CCNCC1` belongs 137 to 139 °C; to `O=C(O)CCCOc1ccc(Br)cc1`, 130 to 132 °C; to `CN(C)c1ccc([N+](=O)[O-])c(O)c1`, 140 to 142 °C.
Under `Nc1ccccc1NS(=O)(=O)c1ccccc1` stands 169 to 171 °C; under `CC(NC(=O)c1ccc2[nH]ncc2c1)C(=O)O` (stereo unspecified), 229 to 231 °C.
Under `COc1ccc(C(C)(C)C(=O)O)cc1OC` stands 84 to 86 °C; under `NCc1ccc(N2CCN(c3ccccc3)CC2)nc1`, 111 to 113 °C.
Take `Fc1ccccc1CNc1ccncc1`: the melting point lay within 83 to 85 °C.
Under `O=C(O)CNc1ccccc1Cl` stands 173 to 175 °C; under `CC(=Cc1ccc(F)cc1)C(=O)O`, 150 to 152 °C.
Under `N#Cc1c(Cl)nsc1Cl` stands 64 to 66 °C; under `Cc1ccc(S(=O)(=O)N2CCC(C(=O)O)CC2)c(C)c1`, 200 to 202 °C.
Under `COC(=O)c1cccc(C(N)=NO)c1` stands 102 to 104 °C.
The molecule `CC(C)(C)OC(=O)N1CCc2ccc(O)cc2C1` had a melting point of 134 to 136 °C.
For the molecule `O=[N+]([O-])c1cc(S(=O)(=O)Cl)c(F)cc1F`, the melting point lay in the range of 46 to 48 °C.
Under `CNc1ccc(C#N)cc1F` stands 76 to 78 °C.
In turn, `Cc1nccn1-c1cccc(F)n1` showed a melting point of 97 to 99 °C.
To `CCOC(=O)c1cnc2ccccc2c1Cl` belongs 37 to 39 °C; to `COCCOc1cc2c(cc1CO)OCO2`, 56 to 58 °C; to `N#Cc1ccc2cc(Br)c(Br)cc2c1`, 138 to 140 °C.
Under `Cc1cc(C(=O)O)nn1C(C)(C)C` stands 143 to 145 °C.
On to `S=C=Nc1cccnc1Cl`, for which the melting point was 35 to 37 °C.
Under `CN1CCN(S(=O)(=O)c2ccc(NN)nc2)CC1` stands 168 to 170 °C.
As for `O=C(O)Cc1csc(-c2cccnc2)n1`, the melting point fell in the range of 115 to 117 °C.
`Cc1nn(-c2ccc(Cl)cc2)c2sc(C(=O)O)cc12` returned a melting point of 230 to 238 °C.
Under `COc1ccc(-c2nc(C=O)cs2)cc1` stands 97 to 99 °C.
`Cc1n[nH]c(C(N)=O)n1` showed a melting point of 222 to 224 °C.
Under `O=C(O)C=Cc1cn(-c2ccccc2)nc1-c1ccc(F)cc1` stands 229 to 231 °C; under `NS(=O)(=O)c1ccc2c(c1)CCC(=O)N2`, 263 to 265 °C.
Under `NNc1ccc(S(=O)(=O)C(F)F)cc1` stands 72 to 74 °C; under `O=C(O)c1ccc(S(=O)(=O)N2CCCC2)cc1`, 243 to 245 °C.
Under `COC(=O)C(Cl)c1cccc(C#N)c1` (stereo unspecified) stands 49 to 51 °C; under `Cc1ccccc1CNc1ccc2[nH]c(=O)[nH]c2c1`, 204 to 206 °C.
Consider `O=Cc1ccccc1OCc1ccccn1`, for which the melting point lay in the range of 73 to 75 °C.
As to `CC(N)c1ccc(-c2cncnc2)cc1` (stereo unspecified), the melting point was in the range of 47 to 49 °C.
The molecule `COc1ccc(N2C(=O)C=CC2=O)c(OC)c1` gave a melting point of 125 to 127 °C.
To `Cc1c(C(=O)O)cnn1-c1ccccn1` belongs 174 to 176 °C; to `NC(=O)CNS(=O)(=O)c1ccc(Br)c(C(=O)O)c1`, 226 to 228 °C; to `O=Cc1ccnc2[nH]ccc12`, 169 to 171 °C.
Turning to `COCCOc1ccc(C(=O)O)cn1`, the melting point is 134 to 136 °C.
To `NNC(=O)c1cnccn1` belongs 170 to 172 °C; to `Cc1cccc2[nH]c(CCC(=O)O)nc12`, 238 to 240 °C.
To `CC(C)C(=O)Nc1cccc(F)c1C(=O)O` belongs 128 to 130 °C; to `Cc1ccc(N)c(C(=O)N(C)C)c1`, 98 to 100 °C; to `Nc1ccc(NC(=O)CN2CCCCCC2)cc1`, 82 to 84 °C.
Under `CS(=O)(=O)Nc1ccccc1CC(=O)O` stands 126 to 128 °C; under `Cc1cc(NC(=O)c2ccccc2I)sc1C(=O)O`, 202 to 204 °C; under `O=c1c2ccccc2nc(S)n1-c1nnc[nH]1`, 234 to 236 °C.
In the case of `CSCCC(NC(=O)c1ccc2ccccc2n1)C(=O)O` (stereo unspecified), the melting point was in the range of 131 to 133 °C.
Under `O=C(O)C1CCN(S(=O)(=O)c2ccc3c(c2)CCC3)CC1` stands 170 to 172 °C; under `Cc1cc(-n2cccc2)ccc1C(=O)O`, 150 to 152 °C.
In turn, `O=C(O)C=Cc1ccc(OCc2ccccc2)cc1` came in with a melting point of 141 to 143 °C.
Under `N#Cc1ccnc(-n2cccn2)c1` stands 96 to 98 °C.
To `CC1(c2ccc(C(=O)O)cc2)NC(=O)NC1=O` (stereo unspecified) belongs 279 to 281 °C; to `Cc1cc(F)c(S(N)(=O)=O)cc1[N+](=O)[O-]`, 159 to 161 °C.
`O=C(O)CCc1ccc(OC(F)F)cc1` showed a melting point of 61 to 63 °C.
